In PubChem BioAssay (NCI):
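Following 48 hours of exposure in 96-well plates, responses at five concentrations were used to interpolate endpoints linearly. Abbreviation: GI50, concentration required for 50% inhibition of growth. TGI marks complete inhibition of growth.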

Assays:
Experiment in all cases: NCI-60 cell line screen, 48 h
[1] = test system: 786-0 renal
[2] = test system: A498 renal
[3] = test system: A549 NSCLC
[4] = test system: ACHN renal
[5] = test system: BT-549 breast
[6] = test system: CAKI-1 renal
[7] = test system: COLO 205 colon
[8] = test system: DU-145 prostate
[9] = test system: EKVX NSCLC
[10] = test system: HCC-2998 colon
[11] = test system: HCT-116 colon
[12] = test system: HCT-15 colon
[13] = test system: HL-60(TB) leukemia
[14] = test system: HOP-62 NSCLC
[15] = test system: HOP-92 NSCLC
[16] = test system: HS 578T breast
[17] = test system: HT29 colon
[18] = test system: IGROV1 ovarian
[19] = test system: K-562 leukemia
[20] = test system: KM12 colon
[21] = test system: LOX IMVI melanoma
[22] = test system: M14 melanoma
[23] = test system: MCF7 breast
[24] = test system: MDA-MB-231 breast
[25] = test system: MDA-MB-435
[26] = test system: MOLT-4 leukemia
[27] = test system: NCI-H226 lung
[28] = test system: NCI-H23 lung
[29] = test system: NCI-H460 lung
[30] = test system: NCI-H522 lung
[31] = test system: NCI/ADR-RES ovarian
[32] = test system: OVCAR-3 ovarian
[33] = test system: OVCAR-5 ovarian
[34] = test system: OVCAR-8 ovarian
[35] = test system: PC-3 prostate
[36] = test system: RPMI-8226 leukemia
[37] = test system: RXF 393 renal
[38] = test system: SF-268 CNS
[39] = test system: SF-295 CNS
[40] = test system: SF-539 CNS
[41] = test system: SK-MEL-2 melanoma
[42] = test system: SK-MEL-28 melanoma
[43] = test system: SK-MEL-5 melanoma
[44] = test system: SK-OV-3 ovarian
[45] = test system: SN12C renal
[46] = test system: SNB-19 CNS
[47] = test system: SNB-75 CNS
[48] = test system: SR leukemia
[49] = test system: SW-620 colon
[50] = test system: TK-10 renal
[51] = test system: U251 CNS
[52] = test system: UACC-257 melanoma
[53] = test system: UACC-62 melanoma
[54] = test system: UO-31 renal

## CN(CCCCCl)P(=O)(OCc1ccc([N+](=O)[O-])o1)OCC1OC(n2ccc(N)nc2=O)C(F)(F)C1O (stereo not given)
[1]
  GI50: 0.0614 µM
  TGI: 1.5 µM
[2]
  GI50: 5.8 µM
  TGI: > 74.5 µM
[3]
  GI50: 0.73 µM
  TGI: > 59.5 µM
[4]
  GI50: 0.0374 µM
[5]
  GI50: 1.57 µM
  TGI: 88.2 µM
[6]
  GI50: 0.223 µM
[7]
  GI50: 7.47 µM
  TGI: > 41.6 µM
[8]
  GI50: 0.188 µM
  TGI: > 28.4 µM
[9]
  GI50: 2.48 µM
  TGI: > 75.4 µM
[10]
  GI50: 3.15 µM
  TGI: 49.1 µM
[11]
  GI50: 1.16 µM
  TGI: > 100 µM
[12]
  GI50: > 73.5 µM
  TGI: > 100 µM
[13]
  GI50: 1.56 µM
  TGI: 17.7 µM
[14]
  GI50: 0.494 µM
  TGI: > 100 µM
[15]
  GI50: 0.155 µM
  TGI: 0.83 µM
[16]
  GI50: > 68 µM
  TGI: > 100 µM
[17]
  GI50: 29.7 µM
  TGI: > 100 µM
[18]
  GI50: 35.4 µM
  TGI: > 100 µM
[19]
  GI50: 13 µM
  TGI: > 100 µM
[20]
  GI50: 14.8 µM
  TGI: > 73.9 µM
[21]
  GI50: 0.754 µM
  TGI: > 40.6 µM
[22]
  GI50: 0.0537 µM
  TGI: 0.269 µM
[23]
  GI50: 0.45 µM
  TGI: > 49 µM
[24]
  GI50: > 49.3 µM
  TGI: > 100 µM
[25]
  GI50: 0.473 µM
  TGI: > 50.9 µM
[26]
  GI50: 0.379 µM
  TGI: 8.92 µM
[27]
  GI50: 15.7 µM
  TGI: > 100 µM
[28]
  GI50: 0.0742 µM
  TGI: 1.53 µM
[29]
  GI50: 0.3 µM
[30]
  GI50: > 39 µM
  TGI: > 100 µM
[31]
  GI50: 0.419 µM
  TGI: > 100 µM
[32]
  GI50: 3.15 µM
  TGI: > 45.5 µM
[33]
  GI50: 1.92 µM
  TGI: > 100 µM
[34]
  GI50: 0.108 µM
[35]
  GI50: 1.82 µM
  TGI: 99.3 µM
[36]
  GI50: 1.87 µM
  TGI: > 100 µM
[37]
  GI50: > 100 µM
  TGI: > 100 µM
[38]
  GI50: 0.257 µM
[39]
  GI50: 0.878 µM
  TGI: > 54.6 µM
[40]
  GI50: 0.0417 µM
  TGI: 0.427 µM
[41]
  GI50: > 80.3 µM
  TGI: > 100 µM
[42]
  GI50: 43.1 µM
  TGI: > 100 µM
[43]
  GI50: 3.2 µM
  TGI: > 67.1 µM
[44]
  GI50: 2.22 µM
  TGI: > 100 µM
[45]
  GI50: 0.363 µM
  TGI: 9.62 µM
[46]
  GI50: 0.257 µM
[47]
  GI50: 12.5 µM
  TGI: 97.5 µM
[48]
  GI50: 0.801 µM
  TGI: 5.63 µM
[49]
  GI50: > 62 µM
  TGI: > 100 µM
[50]
  TGI: > 82.7 µM
[51]
  GI50: 0.77 µM
  TGI: > 86.5 µM
[52]
  GI50: 17.2 µM
  TGI: > 100 µM
[53]
  GI50: 1.1 µM
  TGI: > 100 µM
[54]
  TGI: > 100 µM
